US10512627B2, “Anti-tumor compound and the medical use thereof” (Tianjin Medical University Cancer Institute and Hospital, priority 2014, dated 2019)
Where two headings read alike, the source gives them in different places.

Assays:
[1] = test system: human lung adenocarcinoma cell A549; assay: Scratch test, migration of A549 (Example 4); type: cell-based; settings: 4 and 100 μmol/L, 0-36 h
Protocol: The inhibiting ability of (S)2-(4′-methyl-3′-nitrobenzoylamino)-3-phenylpropionic acid for the migration of human lung adenocarcinoma cell A549 was tested by scratch test.
A549 cells in logarithmic growth phase were plated in the 6-well plate with the density of 5×10^5/3 mL, and after 12 h, the drug was added, with 100 μL per well. The final concentrations of (S)2-(4′-methyl-3′-nitrobenzoylamino)-3-phenylpropionic acid (TCI04) were 4 and 100 μmol/L respectively. The negative control was 100 μL sterilized water with 2% DMSO and the positive control was 4, 100 μmol/L 4-methyl-3-nitrobenzoic acid (TCI01). After 36 h, the medium was removed, and after washing 3 times with PBS, 3 ml culture medium without fetal bovine serum and 100 μL drug (concentration was as above) per well were added. 6 h later, 200 μL tips were used to scratch, and after washing 4 times with PBS, 3 ml medium without fetal bovine serum per well was added. The distance of cell migration was recorded every 3 h under the inverted microscope, and photos were taken at 0 h and 36 h.

4T1-luciferase cells = assay: In situ model of breast cancer in nude mouse, lung metastasis by in vivo imaging (Example 7); parameters: species or system nude mice; settings: 20 mg/kg and 1 mg/kg tail vein, twice a day, 21 days; P<0.01
Protocol: 4) An in situ breast cancer model is constructed by in situ inoculating nude mice with 4T1 cells which are stably transfected with Luciferase, and the number of metastatic tumors on the lung is detected by in vivo imaging system. Such a model mimics the occurrence and metastasis of breast cancer.
The ability of (S)2-(4′-methyl-3′-nitrobenzoylamino)-3-phenylpropionic acid for inhibiting tumor metastasis in vivo was tested by in situ model of breast cancer in nude mouse.
1) Mice grouping: Nude female mice of SPF grade, 5 weeks old, 18˜22 g, 8 mice for each group;
2) The mother liquid of (S)2-(4′-methyl-3′-nitrobenzoylamino)-3-phenylpropionic acid (TCI04) for the dosage form administrated by intravenous injection was diluted to 2 mg/mL, 0.1 mg/mL by adding sterilized water. The dosage for administration in mice was as follows, high dosage of 20 mg/kg; low dosage of 1 mg/kg. […]
3) 4T1-luciferase cells in logarithmic growth phase were digested with 0.05% typsine for 1 min, after centrifugation at 1000 rpm for 5 min, the supernatant was discarded and the cells were resuspended and counted. […]
5) After the completion of the administration, the mice were detected by in vivo imaging system for the condition of tumor metastasis and immediately sacrificed; the lungs alone were detected by the in vivo imaging system for the light intensity to determine the number of tumor metastasis.

Lewis lung cancer cells = assay: Lewis lung cancer metastasis model in mice (Example 8); type: in vivo, C57BL/6 mouse; settings: 50, 25, 5 mg/kg intragastric, twice a day, 21 days; P<0.01
Protocol: 5) A lung cancer model of mouse is established by subcutaneous inoculation of Lewis lung cancer cells in C57BL/6 mouse, because of the characteristic of Lewis lung cancer cell of specific metastasis toward the lung, and the ability of a drug for inhibiting the metastasis of the tumor cells may be determined by counting the number of the metastatic tumors on lung.
The ability of (S)2-(4′-methyl-3′-nitrobenzoylamino)-3-phenylpropionic acid for inhibiting tumor metastasis in vivo was tested by Lewis lung cancer metastasis model in mice.
1) Mice grouping, C57BL/6 of SPF grade, 5 weeks old, 18˜22 g, 8 mice for each group. half male and half female;
2) The mother liquid of (S)2-(4′-methyl-3′-nitrobenzoylamino)-3-phenylpropionic acid for dosage form for oral administration was diluted with 1.5% CMC-Na solution to 5 mg/mL, 2.5 mg/mL, 0.5 mg/mL. The dosage for administration in mice was as follows, high dosage group of 50 mg/kg; Medium dosage group of 25 mg/kg; low dosage group of 5 mg/kg. The negative control was 1.5% CMC-Na solution; The positive control was 10 mg/mL of dosage form of 4-methyl-3-nitrobenzoic acid for oral administration, with dosage for administration of 100 mg/kg; […]
5) After the completion of the experiment, the mice were sacrificed and the lungs were made into paraffin tissue sections, then stained by HE and the number of tumors were counted under microscope;

[2] = Mice acute toxicity assay, intravenous administration (Example 9); settings: both sexes, Kunming, mouse, in vivo, Bliss algorithm
Protocol: The median lethal dose of (S)2-(4′-methyl-3′-nitrobenzoylamino)-3-phenylpropionic acid via intravenous administration was tested by mice acute toxicity assay.
1) Mice grouping, Kunming mice of clean grade, 10 weeks old, 30˜40 g body weight, 10 mice for each group, half male and half female.
2) 10 groups in total, concentration distance between groups was 0.88. Sterilized water was added to the mother liquid II for dosage form administrated by intravenous injection to formulate into the required concentration and 0.2 ml was intravenously injected for each mouse, following 14 days observation. The dosage of administration for each group and the death numbers were recorded as follows: […]

MDA-MB-231 cells = assay: MTT assay, synergistic effect with Paclitaxel (Example 12); type: cell-based, human; settings: 20 μM, 24 or 48 h
Protocol: Synergistic effects of (S)2-(4′-methyl-3′-nitrobenzoylamino)-3-phenylpropionic acid and Paclitaxel was tested by MTT assay.
1) The MDA-MB-231 cells in logarithmic growth phase were seeded in the 96-well plate at a density of 4×10^3/0.2 ml. After culturing for 12 h, 10 μl Paclitaxel solution was added, with the final concentration of 0, 0.001, 0.01, 0.1, 1, 10, 50, 100, 200 μM, then 10 μL (S)2-(4′-methyl-3′-nitrobenzoylamino)-3-phenylpropionic acid PBS solution was add to half of the wells for each group with the final concentration of 20 μM, followed by continuous culturing for 24 or 48 h.
2) 5 mg/mL MTT solution was prepared with sterilized PBS, filtered with 0.22 μm film, and diluted with medium to 1 mg/mL. After discarding the medium in the 96-well plate, 100 μL 1 mg/mL MTT working solution was added, followed by continuous culturing for 5 h.
3) MTT working solution was discarded, and 150 μL DMSO was added per well (note: to away from light). The plate was shaken on a horizontal shaker at 170 rpm for 10 min, and then the absorbance at 490 nm was detected by microplate reader.

## Cc1ccc(C(=O)N[C@@H](Cc2ccccc2)C(=O)O)cc1[N+](=O)[O-] [(S)2-(4′-methyl-3′-nitrobenzoylamino)-3-phenylpropionic acid]
[1]
  inhibition of migration ability (coalescence speed of cell scratch vs negative control): significantly inhibited
4T1-luciferase cells
  light intensity of the whole lung vs negative control: significantly weaker than the negative control
Lewis lung cancer cells
  number of the tumors on the lungs compared with the negative control: very significant difference
[2]; read-out: LD50
  LD50 at 14 days: 269 mg/kg
[2]; read-out: LD50 95% confidence limits
  LD50 at 14 days: 249 to 291 mg/kg
MDA-MB-231 cells
  synergistic effect with Paclitaxel: strong synergistic effect
